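96-well plates; 48 h exposure; 5 concentrations. Endpoints by linear interpolation between flanking doses. Not reached: highest tested concentration assigned. GI50 = concentration required for 50% inhibition of growth. At the TGI there is no net growth.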
Assays:
Test in all cases: DTP human tumour cell line panel, 48 h
[1] = tested on: 786-0 renal
[2] = tested on: A498 renal
[3] = tested on: A549 NSCLC
[4] = tested on: ACHN renal
[5] = tested on: BT-549 breast
[6] = tested on: CAKI-1 renal
[7] = tested on: CCRF-CEM leukemia
[8] = tested on: COLO 205 colon
[9] = tested on: DU-145 prostate
[10] = tested on: EKVX NSCLC
[11] = tested on: HCC-2998 colon
[12] = tested on: HCT-116 colon
[13] = tested on: HCT-15 colon
[14] = tested on: HL-60(TB) leukemia
[15] = tested on: HOP-62 NSCLC
[16] = tested on: HOP-92 NSCLC
[17] = tested on: HS 578T breast
[18] = tested on: HT29 colon
[19] = tested on: IGROV1 ovarian
[20] = tested on: K-562 leukemia
[21] = tested on: KM12 colon
[22] = tested on: LOX IMVI melanoma
[23] = tested on: M14 melanoma
[24] = tested on: MALME-3M melanoma
[25] = tested on: MCF7 breast
[26] = tested on: MDA-MB-231 breast
[27] = tested on: MDA-MB-435
[28] = tested on: MDA-MB-468 breast
[29] = tested on: MOLT-4 leukemia
[30] = tested on: NCI-H226 lung
[31] = tested on: NCI-H23 lung
[32] = tested on: NCI-H460 lung
[33] = tested on: NCI-H522 lung
[34] = tested on: NCI/ADR-RES ovarian
[35] = tested on: OVCAR-3 ovarian
[36] = tested on: OVCAR-4 ovarian
[37] = tested on: OVCAR-5 ovarian
[38] = tested on: OVCAR-8 ovarian
[39] = tested on: PC-3 prostate
[40] = tested on: RPMI-8226 leukemia
[41] = tested on: SF-268 CNS
[42] = tested on: SF-295 CNS
[43] = tested on: SF-539 CNS
[44] = tested on: SK-MEL-2 melanoma
[45] = tested on: SK-MEL-28 melanoma
[46] = tested on: SK-MEL-5 melanoma
[47] = tested on: SK-OV-3 ovarian
[48] = tested on: SN12C renal
[49] = tested on: SNB-19 CNS
[50] = tested on: SNB-75 CNS
[51] = tested on: SR leukemia
[52] = tested on: SW-620 colon
[53] = tested on: T-47D breast
[54] = tested on: TK-10 renal
[55] = tested on: U251 CNS
[56] = tested on: UACC-257 melanoma
[57] = tested on: UACC-62 melanoma
[58] = tested on: UO-31 renal

Question: For `CCc1ccccc1-c1nc(CN[C@@H]2C[C@@H]3C[C@H]([C@H]2C)C3(C)C)c(C)o1`, which GI50 [1] is on record?
Answer: 1.71 µM

Question: And the TGI [1]?
Answer: 3.5 µM

Question: What about the GI50 [2] of the same compound?
Answer: 1.54 µM

Question: And the TGI [2]?
Answer: 2.95 µM

Question: And the GI50 [3]?
Answer: 1.88 µM

Question: What about the TGI [3] of the same compound?
Answer: 4.03 µM

Question: What about the GI50 [4] of the same compound?
Answer: 1.77 µM

Question: What about the TGI [4] of the same compound?
Answer: 3.18 µM

Question: What about the GI50 [5] of the same compound?
Answer: 1.71 µM

Question: And the TGI [5]?
Answer: 3.17 µM

Question: What about the GI50 [6] of the same compound?
Answer: 1.83 µM

Question: And the TGI [6]?
Answer: 3.81 µM

Question: What about the GI50 [7] of the same compound?
Answer: 3.25 µM

Question: What about the TGI [7] of the same compound?
Answer: 10.6 µM

Question: What about the GI50 [8] of the same compound?
Answer: 1.85 µM

Question: What about the TGI [8] of the same compound?
Answer: 3.95 µM

Question: What about the GI50 [9] of the same compound?
Answer: 2.03 µM

Question: What about the TGI [9] of the same compound?
Answer: 4.26 µM

Question: And the GI50 [10]?
Answer: 2.58 µM

Question: What about the TGI [10] of the same compound?
Answer: 7.01 µM

Question: What about the GI50 [11] of the same compound?
Answer: 1.65 µM

Question: What about the TGI [11] of the same compound?
Answer: 3.07 µM

Question: What about the GI50 [12] of the same compound?
Answer: 1.74 µM

Question: And the TGI [12]?
Answer: 3.3 µM

Question: What about the GI50 [13] of the same compound?
Answer: 1.72 µM

Question: And the TGI [13]?
Answer: 3.15 µM

Question: What about the GI50 [14] of the same compound?
Answer: 2.43 µM

Question: What about the TGI [14] of the same compound?
Answer: 6.73 µM

Question: What about the GI50 [15] of the same compound?
Answer: 1.65 µM

Question: What about the TGI [15] of the same compound?
Answer: 3.28 µM

Question: What about the GI50 [16] of the same compound?
Answer: 1.37 µM

Question: What about the TGI [16] of the same compound?
Answer: 2.85 µM

Question: And the GI50 [17]?
Answer: 1.83 µM

Question: What about the TGI [17] of the same compound?
Answer: 4.16 µM

Question: And the GI50 [18]?
Answer: 1.73 µM

Question: What about the TGI [18] of the same compound?
Answer: 3.4 µM

Question: What about the GI50 [19] of the same compound?
Answer: 1.7 µM

Question: And the TGI [19]?
Answer: 3.26 µM

Question: And the GI50 [20]?
Answer: 2.34 µM

Question: What about the TGI [20] of the same compound?
Answer: 6.54 µM

Question: And the GI50 [21]?
Answer: 1.85 µM

Question: What about the TGI [21] of the same compound?
Answer: 3.57 µM

Question: And the GI50 [22]?
Answer: 1.66 µM

Question: And the TGI [22]?
Answer: 3.02 µM

Question: What about the GI50 [23] of the same compound?
Answer: 1.62 µM

Question: And the TGI [23]?
Answer: 3.12 µM

Question: And the GI50 [24]?
Answer: 1.49 µM

Question: And the TGI [24]?
Answer: 2.84 µM

Question: And the GI50 [25]?
Answer: 1.65 µM

Question: And the TGI [25]?
Answer: 3.18 µM

Question: And the GI50 [26]?
Answer: 1.7 µM

Question: And the TGI [26]?
Answer: 3.12 µM

Question: What about the GI50 [27] of the same compound?
Answer: 1.67 µM

Question: And the TGI [27]?
Answer: 3.11 µM

Question: And the GI50 [28]?
Answer: 1.5 µM

Question: And the TGI [28]?
Answer: 2.87 µM

Question: What about the GI50 [29] of the same compound?
Answer: 2.23 µM

Question: What about the TGI [29] of the same compound?
Answer: 5.72 µM

Question: What about the GI50 [30] of the same compound?
Answer: 2.11 µM

Question: And the TGI [30]?
Answer: 5 µM

Question: What about the GI50 [31] of the same compound?
Answer: 1.96 µM

Question: And the TGI [31]?
Answer: 4.38 µM

Question: What about the GI50 [32] of the same compound?
Answer: 1.72 µM

Question: And the TGI [32]?
Answer: 3.16 µM

Question: And the GI50 [33]?
Answer: 1.61 µM

Question: And the TGI [33]?
Answer: 3.22 µM

Question: What about the GI50 [34] of the same compound?
Answer: 1.76 µM

Question: And the TGI [34]?
Answer: 3.61 µM

Question: And the GI50 [35]?
Answer: 1.61 µM

Question: And the TGI [35]?
Answer: 2.96 µM

Question: What about the GI50 [36] of the same compound?
Answer: 2.53 µM

Question: What about the TGI [36] of the same compound?
Answer: 8.36 µM

Question: And the GI50 [37]?
Answer: 1.59 µM

Question: And the TGI [37]?
Answer: 3.04 µM

Question: And the GI50 [38]?
Answer: 1.7 µM

Question: And the TGI [38]?
Answer: 3.24 µM

Question: What about the GI50 [39] of the same compound?
Answer: 1.8 µM

Question: And the TGI [39]?
Answer: 4.38 µM

Question: What about the GI50 [40] of the same compound?
Answer: 2.19 µM

Question: What about the TGI [40] of the same compound?
Answer: 5.27 µM

Question: And the GI50 [41]?
Answer: 2.58 µM

Question: And the TGI [41]?
Answer: 11 µM

Question: What about the GI50 [42] of the same compound?
Answer: 1.72 µM

Question: And the TGI [42]?
Answer: 3.17 µM

Question: And the GI50 [43]?
Answer: 1.8 µM

Question: What about the TGI [43] of the same compound?
Answer: 3.18 µM

Question: What about the GI50 [44] of the same compound?
Answer: 2.55 µM

Question: What about the TGI [44] of the same compound?
Answer: 7.34 µM

Question: And the GI50 [45]?
Answer: 1.72 µM

Question: And the TGI [45]?
Answer: 3.11 µM

Question: And the GI50 [46]?
Answer: 1.77 µM

Question: And the TGI [46]?
Answer: 3.15 µM

Question: What about the GI50 [47] of the same compound?
Answer: 14.2 µM

Question: What about the TGI [47] of the same compound?
Answer: 28.9 µM

Question: And the GI50 [48]?
Answer: 1.68 µM

Question: And the TGI [48]?
Answer: 3.13 µM

Question: What about the GI50 [49] of the same compound?
Answer: 1.77 µM

Question: What about the TGI [49] of the same compound?
Answer: 3.4 µM

Question: And the GI50 [50]?
Answer: 12 µM

Question: And the TGI [50]?
Answer: 24.4 µM

Question: What about the GI50 [51] of the same compound?
Answer: 2.11 µM

Question: What about the TGI [51] of the same compound?
Answer: 5.33 µM

Question: And the GI50 [52]?
Answer: 1.69 µM

Question: What about the TGI [52] of the same compound?
Answer: 3.2 µM

Question: And the GI50 [53]?
Answer: 1.73 µM

Question: What about the TGI [53] of the same compound?
Answer: 3.81 µM

Question: And the GI50 [54]?
Answer: 2.01 µM

Question: What about the TGI [54] of the same compound?
Answer: 5.08 µM

Question: And the GI50 [55]?
Answer: 1.6 µM

Question: And the TGI [55]?
Answer: 3.06 µM

Question: What about the GI50 [56] of the same compound?
Answer: 1.66 µM

Question: And the TGI [56]?
Answer: 3.23 µM

Question: And the GI50 [57]?
Answer: 1.69 µM

Question: What about the TGI [57] of the same compound?
Answer: 3.19 µM

Question: What about the GI50 [58] of the same compound?
Answer: 2.13 µM

Question: And the TGI [58]?
Answer: 8.45 µM

From PubChem BioAssay (NCI)
